One block for each compound: values may come before it.
Experiments:
[1] = tested on: KRASG12C-mutant cell line MiaPaCa2; test: Cell viability (CellTiter-Glo) and HSA synergy model, MiaPaCa2; format: cell-based
Procedure: (§1) Cell lines were seeded in complete growth media (RPMI-1640 or DMEM with 10% Fetal Bovine Serum and 1% Penicillin/Streptomycin) and allowed to adhere overnight in a 37° C. and 5% CO2 humidified incubator. The following day compounds were added at the indicate concentrations and incubated for a further 5 days. The number of viable cells in each well were assessed with Promega CellTiter-Glo® reagent according to manufacturer instructions. The cell viability was normalized to DMSO controls. The cell viability as a function of compound concentrations were plotted using GraphPad Prism analyzed using the Combenefit software package (Di Veroli G Y, Fornari C, Wang D, Mollard S, Bramhall J L, Richards F M, Jodrell D I. Combenefit: an interactive platform for the analysis and visualization of drug combinations. Bioinformatics. 2016 Sep. 15; 32(18):2866-8. doi: 10.1093/bioinformatics/btw230) to assess the synergy according to the highest single agent (HSA) synergy model (Borisy A A, Elliott P J, Hurst N W, Lee M S, Lehar J, Price E R, Serbedzija G, Zimmermann G R, Foley M A, Stockwell B R, Keith C T. Systematic discovery of multicomponent therapeutics. Proc Natl Acad Sci USA. 2003 Jun. 24; 100(13):7977-82. doi: 10.1073/pnas.1337088100)).
The KRASG12C-mutant cell line MiaPaCa2 was grown in DMEM supplemented with 10% fetal bovine serum and 1% penicillin/streptomycin. […]

[2] = tested on: KRASG12D-mutant cell line Gp2D; test: Cell viability (CellTiter-Glo) and HSA synergy model, Gp2D; format: cell-based
Procedure: as §1
The KRASG12D-mutant cell line Gp2D was grown in RPMI-16 40 supplemented with 10% fetal bovine serum and 1% penicillin/streptomycin. […]

[3] = tested on: KRASG12D-mutant cell line AsPC-1; test: Cell viability (CellTiter-Glo) and HSA synergy model, AsPC-1; format: cell-based
Procedure: as §1
The KRASG12D-mutant cell line AsPC-1 was grown in RPMI-1640 supplemented with 10% fetal bovine serum and 1% penicillin/streptomycin. 2500 cells were seeded in 0.15 mL in the wells of a tissue culture-treated 96-well plate. After overnight incubation, compounds were added at the indicated concentration and incubated for a further 120 hours. Cell viability was assessed with Promega CellTiter Glo reagent, and the relative cell viability was plotted as a function of the concentration of (FIG. 4A and FIG. 4G) MRTX1133 or (FIG. 4D) MRTX-282 in combination with the indicated concentration to Compound A (FIG. 4A and FIG. 4D) or Compound D (FIG. 4G), both strong hydrolyzers. The synergy between (FIG. 4B and FIG. 4H) MRTX1133 or (FIG. 4E) MRTX-282 and Compound A (FIGS. 4B and 4E) or Compound D (FIG. 4H) was assessed by the HAS synergy model. Representative points of synergistic drug combination between (FIG. 4C and FIG. 4I) MRTX1133 or (FIG. 4F) MRTX-282 and Compound A (FIG. 4C and FIG. 4F) or Compound D (FIG. 4I) are highlighted.
The KRASG12D-mutant cell line AsPC-1 was grown in RPMI-1640 supplemented with 10% fetal bovine serum and 1% penicillin/streptomycin. 2000 cells were seeded in 0.15 mL in the wells of a tissue culture-treated 96-well plate. After overnight incubation, compounds were added at the indicated concentration and incubated for a further 120 hours. Cell viability was assessed with Promega CellTiter Glo reagent, and the relative cell viability was plotted as a function of the concentration of pan KRAS-IN-1 in combination with the indicated concentration to Compound D (FIG. 11A) or Compound C (FIG. 11D), both strong hydrolyzers. The synergy between pan KRAS-IN-1 and Compound D (FIG. 11B) or Compound C (FIG. 11E) was assessed by the HAS synergy model. Representative points of synergistic drug combination between pan KRAS-IN-1 and Compound D (FIG. 11C) or Compound C (FIG. 11F).

[4] = tested on: KRASG12D-mutant cell line HPAC; test: Cell viability (CellTiter-Glo) and HSA synergy model, HPAC; format: cell-based
Procedure: as §1
The KRASG12D-mutant cell line HPAC was grown in RPMI-16 40 supplemented with 10% fetal bovine serum and 1% penicillin/streptomycin. […]

KRAS^G12C = target: T1, KRAS^G12C (Homo sapiens, UniProt P01116, G12C); test: Covalent modification (cross-linking) of KRAS^G12C by sotorasib in MiaPaCa2 cells, immunoblot; format: cell-based
T1 construct: endogenous in cells; host or cells: MiaPaCa2
Procedure: The KRASG12C-mutant cell line MiaPaCa2 was grown in DMEM supplemented with 10% fetal bovine serum and 1% penicillin/streptomycin. 2500 cells were seeded in 0.15 mL in the wells of a tissue culture-treated 96-well plate. After overnight incubation, compounds were added at the indicated concentration and incubated for a further 120 hours. […] The density of the KRAS^G12C and KRAS^G12C-Soto. gel bands can be quantified, plotted as a function of time, and fit to a single-phase exponential model to get the rate constant for KRAS^G12C target engagement.

[5] = target: T2, GTP-loaded KRAS proteins (residue 1-169 of KRAS4B) (Homo sapiens, UniProt P01116, G12V); test: RAS GTP hydrolysis rate assay (GTPase-Glo) with cyclophilin A; format: biochemical; conditions: bound in tri-complex with cyclophilin A; in some embodiments KRAS^G12V is the isoform used
T2 construct: recombinant KRAS proteins (residue 1-169 of KRAS4B); His6 (TEV protease-cleavable) (cleaved yes); made in house; host or cells: E. coli
Procedure: (§2) The rate of RAS GTP hydrolysis was assayed in the presence of various KRAS mutations. To assess GTP hydrolysis activity, recombinant KRAS proteins (residue 1-169 of KRAS4B) were expressed in E. coli and purified using a TEV protease-cleavable His6-tag and Ni^2+ affinity chromatography. The His6 tag was removed by treatment with TEV protease, and the KRAS protein was isolated by passing through a second Ni^2+ column followed by size exclusion chromatography. The purified KRAS proteins were loaded with GTP by incubation for 2 hours on ice with 2 mM GTP and 10 mM Ethylenediaminetetraacetic Acid, followed by addition of 10 mM MgCl2 and incubation on ice for 1 additional hour. The excess GTP was removed by overnight dialysis against buffer (12.5 mM HEPES, 75 mM NaCl, pH 7.5) at 4° C. The GTP-loaded KRAS protein were flash frozen in liquid nitrogen, then stored at −80° C. until use.
(§3) GTP-loaded KRAS proteins (1 μM) were combined with 25 μM of recombinant human cyclophilin A and 10 μM of compound in reaction buffer (12.5 mM HEPES, 75 mM NaCl, 1 mM MgCl2, 1 mM DTT, 1% DMSO, pH 7.5) pre-warmed to 37° C. At fixed time points, aliquots were removed and quenched by heating to 80° C. to denature the proteins, then centrifuged to pellet the protein precipitate. The supernatant was assessed for GTP levels using Promega GTPase-Glo™ according to manufacturer instructions. The levels of GTP as a function of incubation time were fit to a single phase exponential decay to determine the rate constant for hydrolysis activity.

[6] = tested on: GTP-loaded KRAS proteins (residue 1-169 of KRAS4B); test: as above; format: biochemical; conditions: 10 μM compound, 25 μM cyclophilin A, 37° C.
Procedure: as §2, §3

[7] = in combination with MRTX1133, 120 hours
[8] = in combination with MRTX-282, 120 hours

- amount of covalently-modified KRAS^G12C (KRAS^G12C-Soto.) (KRAS^G12C; MiaPaca-2 cells, sotorasib in combination with 1 or 10 μM of Compound A): increased at each time point
- rate of covalent engagement of KRAS^G12C (rate constant for target engagement) (KRAS^G12C; combination of sotorasib and compound A compared with sotorasib alone): more rapid
SMILES: CCn1c(-c2cccnc2[C@H](C)OC)c2c3cc(ccc31)[C@@H]1C[C@H]1CC[C@H](NC(=O)[C@H]1[C@H](C)[C@@H]1C)C(=O)N1CCC[C@H](N1)C(=O)OCC(C)(C)C2 (atropisomer, axis not shown) [compound 1]
- synergy on cell viability (HSA synergy model) ([1]; MiaPaCa2, in combination with AMG510, 120 hours): synergistic
- synergy on cell viability (HSA synergy model) ([1]; MiaPaCa2, in combination with MRTX849, 120 hours): synergistic
- synergy on cell viability (HSA synergy model) [2, 7]: synergistic
- synergy on cell viability (HSA synergy model) [2, 8]: synergistic
- synergy on cell viability (HSA synergy model) ([3]; AsPC-1, in combination with MRTX1133, 120 hours): synergistic
- synergy on cell viability (HSA synergy model) ([3]; AsPC-1, in combination with MRTX-282, 120 hours): synergistic
- synergy on cell viability (HSA synergy model) [4, 7]: synergistic
- synergy on cell viability (HSA synergy model) [4, 8]: synergistic
- cross-linking efficiency of sotorasib (KRAS^G12C; MiaPaCa2 cells, 1 μM sotorasib in combination with 1 μM or 10 μM Compound A vs sotorasib alone): increases in a concentration dependent manner

- hydrolyzer class: RAS(ON) GTP hydrolysis rate relative to the intrinsic hydrolysis rate [5]: 21 Weak
SMILES: CCn1c(-c2cc(N3CCN(C)CC3)cnc2[C@H](C)OC)c2c3cc(ccc31)-c1cccc(n1)C[C@H](NC(=O)[C@H]1C[C@@H]1C)C(=O)N1CCC[C@H](N1)C(=O)OCC(C)(C)C2 (atropisomer, axis not shown) [compound 21]

- hydrolyzer class: RAS(ON) GTP hydrolysis rate relative to the intrinsic hydrolysis rate [5]: 22 Weak
SMILES: CCn1c(-c2cc(N3CCN(C)CC3)cnc2[C@H](C)OC)c2c3cc(ccc31)N1CCO[C@@H](C[C@H](NC(=O)[C@H]3C[C@@H]3C)C(=O)N3CCC[C@H](N3)C(=O)OCC(C)(C)C2)C1 (atropisomer, axis not shown) [compound 22]

- RAS GTP hydrolysis activation [6]: does not activate GTP hydrolysis
SMILES: CCn1c(-c2cccnc2[C@H](C)OC)c2c3cc(ccc31)-c1cc(O)cc(c1)C[C@H](NC(=O)[C@H](C(C)C)N(C)C(=O)C1(C#N)CC1)C(=O)N1CCC[C@H](N1)C(=O)OCC(C)(C)C2 (racemic) [Compound F, reference compound]
